Common to all, as to settings: recombinant enzyme
Data set [1] deals with T1, Cytochrome P450 2C9 (Homo sapiens, UniProt P11712). The experiment in a line: Drug activation in human Hep3B cells assessed as human CYP2C9-mediated drug metabolism-induced cytotoxicity measured as decrease in cell viability at 300 uM pre-incubated with BSO for 18 hrs followed by incubation with compound for 3 hrs in presence of NADPH measured after 24 hrs in absence of compound, CYP3A4 and NADPH by cell titer-glo luminescence assay relative to BSO alone. In general terms: In ATP-based viability assays light output follows the ATP content of the culture.

Data set [2] concerns the target T2, Cytochrome P450 3A4 (Homo sapiens, UniProt P08684). The experiment in a line: Drug activation in human Hep3B cells assessed as human CYP3A4-mediated drug metabolism-induced cytotoxicity measured as decrease in cell viability at 242.9 uM pre-incubated with BSO for 18 hrs followed by incubation with compound for 3 hrs in presence of NADPH measured after 24 hrs in absence of compound, CYP3A4 and NADPH by cell titer-glo luminescence assay relative to BSO alone. The format is ADME, cell-based.

In data set [3] the target is T3, Cytochrome P450 2D6 (Homo sapiens, UniProt P10635). The experiment in a line: Drug activation in human Hep3B cells assessed as human CYP2D6-mediated drug metabolism-induced cytotoxicity measured as decrease in cell viability at 139.7 uM pre-incubated with BSO for 18 hrs followed by incubation with compound for 3 hrs in presence of NADPH measured after 24 hrs in absence of compound, CYP3A4 and NADPH by cell titer-glo luminescence assay relative to BSO alone. The format is ADME, cell-based.

Data set [4] has as its target T1, Cytochrome P450 2C9. The experiment in a line: Drug activation in human Hep3B cells assessed as human CYP2C9-mediated drug metabolism-induced cytotoxicity measured as decrease in cell viability at 39 uM pre-incubated with BSO for 18 hrs followed by incubation with compound for 3 hrs in presence of NADPH measured after 24 hrs in absence of compound, CYP3A4 and NADPH by cell titer-glo luminescence assay relative to BSO alone. The format is ADME, cell-based.

The target of data set [5] is T2, Cytochrome P450 3A4. Briefly: Drug activation in human Hep3B cells assessed as human CYP3A4-mediated drug metabolism-induced cytotoxicity measured as decrease in cell viability at 22.3 uM pre-incubated with BSO for 18 hrs followed by incubation with compound for 3 hrs in presence of NADPH measured after 24 hrs in absence of compound, CYP3A4 and NADPH by cell titer-glo luminescence assay relative to BSO alone. It counts as ADME, cell-based.

Data set [6] addresses T3, Cytochrome P450 2D6. Briefly: Drug activation in human Hep3B cells assessed as human CYP2D6-mediated drug metabolism-induced cytotoxicity measured as decrease in cell viability at 17.6 uM pre-incubated with BSO for 18 hrs followed by incubation with compound for 3 hrs in presence of NADPH measured after 24 hrs in absence of compound, CYP3A4 and NADPH by cell titer-glo luminescence assay relative to BSO alone. It counts as ADME, cell-based.

Data set [7] has as its target T2, Cytochrome P450 3A4. The experiment in a line: Drug activation in human Hep3B cells assessed as human CYP3A4-mediated drug metabolism-induced cytotoxicity measured as decrease in cell viability at 150.3 uM pre-incubated with BSO for 18 hrs followed by incubation with compound for 3 hrs in presence of NADPH measured after 24 hrs in absence of compound, CYP3A4 and NADPH by cell titer-glo luminescence assay relative to BSO alone. It counts as ADME, cell-based.

The target in data set [8] is T3, Cytochrome P450 2D6. The experiment in a line: Drug activation in human Hep3B cells assessed as human CYP2D6-mediated drug metabolism-induced cytotoxicity measured as decrease in cell viability at 7 uM pre-incubated with BSO for 18 hrs followed by incubation with compound for 3 hrs in presence of NADPH measured after 24 hrs in absence of compound, CYP3A4 and NADPH by cell titer-glo luminescence assay relative to BSO alone. It counts as ADME, cell-based.

Data set [9] concerns the target T3, Cytochrome P450 2D6. The experiment in a line: Drug activation in human Hep3B cells assessed as human CYP2D6-mediated drug metabolism-induced cytotoxicity measured as decrease in cell viability at 8.9 uM pre-incubated with BSO for 18 hrs followed by incubation with compound for 3 hrs in presence of NADPH measured after 24 hrs in absence of compound, CYP3A4 and NADPH by cell titer-glo luminescence assay relative to BSO alone. The format is ADME, cell-based.

Data set [10] has as its target T2, Cytochrome P450 3A4. Briefly: Drug activation in human Hep3B cells assessed as human CYP3A4-mediated drug metabolism-induced cytotoxicity measured as decrease in cell viability at 300 uM pre-incubated with BSO for 18 hrs followed by incubation with compound for 3 hrs in presence of NADPH measured after 24 hrs in absence of compound, CYP3A4 and NADPH by cell titer-glo luminescence assay relative to BSO alone.

The target of data set [11] is T3, Cytochrome P450 2D6. Briefly: Drug activation in human Hep3B cells assessed as human CYP2D6-mediated drug metabolism-induced cytotoxicity measured as decrease in cell viability at 264.7 uM pre-incubated with BSO for 18 hrs followed by incubation with compound for 3 hrs in presence of NADPH measured after 24 hrs in absence of compound, CYP3A4 and NADPH by cell titer-glo luminescence assay relative to BSO alone. The format is ADME, cell-based.

Data set [12] concerns the target T3, Cytochrome P450 2D6. The experiment in a line: Drug activation in human Hep3B cells assessed as human CYP2D6-mediated drug metabolism-induced cytotoxicity measured as decrease in cell viability at 156.7 uM pre-incubated with BSO for 18 hrs followed by incubation with compound for 3 hrs in presence of NADPH measured after 24 hrs in absence of compound, CYP3A4 and NADPH by cell titer-glo luminescence assay relative to BSO alone. The format is ADME, cell-based.

The target of data set [13] is T2, Cytochrome P450 3A4. Briefly: Drug activation in human Hep3B cells assessed as human CYP3A4-mediated drug metabolism-induced cytotoxicity measured as decrease in cell viability at 209.7 uM pre-incubated with BSO for 18 hrs followed by incubation with compound for 3 hrs in presence of NADPH measured after 24 hrs in absence of compound, CYP3A4 and NADPH by cell titer-glo luminescence assay relative to BSO alone. It counts as ADME, cell-based.

T1 sequence (P11712 whole entry): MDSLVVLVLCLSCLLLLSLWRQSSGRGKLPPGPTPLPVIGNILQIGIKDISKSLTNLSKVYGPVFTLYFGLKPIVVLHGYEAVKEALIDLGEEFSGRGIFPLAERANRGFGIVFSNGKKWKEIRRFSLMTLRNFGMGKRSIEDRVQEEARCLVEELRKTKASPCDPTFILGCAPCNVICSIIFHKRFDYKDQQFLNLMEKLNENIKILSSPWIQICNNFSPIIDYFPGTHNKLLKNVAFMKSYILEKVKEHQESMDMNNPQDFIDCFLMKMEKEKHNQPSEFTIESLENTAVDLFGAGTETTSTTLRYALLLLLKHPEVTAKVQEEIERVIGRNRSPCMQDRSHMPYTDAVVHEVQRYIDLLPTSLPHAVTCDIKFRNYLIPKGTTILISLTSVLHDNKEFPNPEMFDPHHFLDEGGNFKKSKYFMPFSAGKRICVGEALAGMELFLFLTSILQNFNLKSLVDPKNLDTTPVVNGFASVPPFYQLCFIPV
T2 sequence (P08684 whole entry): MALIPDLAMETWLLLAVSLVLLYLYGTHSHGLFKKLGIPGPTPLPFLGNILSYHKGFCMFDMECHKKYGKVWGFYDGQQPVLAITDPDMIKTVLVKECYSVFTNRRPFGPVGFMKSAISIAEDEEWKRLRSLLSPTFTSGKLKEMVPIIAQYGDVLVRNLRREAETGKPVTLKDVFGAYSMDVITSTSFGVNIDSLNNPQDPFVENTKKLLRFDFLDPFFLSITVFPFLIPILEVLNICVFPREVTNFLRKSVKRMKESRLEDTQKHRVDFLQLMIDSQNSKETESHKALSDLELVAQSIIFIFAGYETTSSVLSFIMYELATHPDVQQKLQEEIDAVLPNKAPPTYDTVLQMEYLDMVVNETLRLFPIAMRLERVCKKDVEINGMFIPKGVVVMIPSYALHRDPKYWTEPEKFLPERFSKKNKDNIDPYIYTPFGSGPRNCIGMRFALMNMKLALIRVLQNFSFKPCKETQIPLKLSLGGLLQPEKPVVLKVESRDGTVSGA
T3 sequence (P10635 whole entry): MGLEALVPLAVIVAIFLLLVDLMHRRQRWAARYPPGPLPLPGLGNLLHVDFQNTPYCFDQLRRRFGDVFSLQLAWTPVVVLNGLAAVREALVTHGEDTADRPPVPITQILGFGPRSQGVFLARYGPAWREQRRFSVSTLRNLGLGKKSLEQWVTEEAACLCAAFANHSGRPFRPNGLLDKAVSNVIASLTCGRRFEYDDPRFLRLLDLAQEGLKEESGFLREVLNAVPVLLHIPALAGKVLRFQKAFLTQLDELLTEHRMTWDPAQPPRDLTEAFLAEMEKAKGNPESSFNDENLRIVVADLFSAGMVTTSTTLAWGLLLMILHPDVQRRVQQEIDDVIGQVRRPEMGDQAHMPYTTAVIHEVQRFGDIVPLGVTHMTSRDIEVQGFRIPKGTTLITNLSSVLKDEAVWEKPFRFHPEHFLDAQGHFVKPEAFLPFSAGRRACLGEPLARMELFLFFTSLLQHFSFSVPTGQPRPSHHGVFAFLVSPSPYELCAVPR

Take `Cc1nc(-c2ccc(OCC(C)C)c(C#N)c2)sc1C(=O)O` [FEBUXOSTAT]: the FC at Cytochrome P450 2C9 [1] is given as 1. The “fold change (FC)” value at Cytochrome P450 3A4 [2] was 1.2; on Cytochrome P450 2D6 [3], 2.1.
For the molecule `O=C(c1ccccc1)c1ccc2n1CCC2C(=O)O` (stereo not drawn) [KETOROLAC], the “fold change (FC)” value on Cytochrome P450 2C9 [4] was 0.4; at Cytochrome P450 3A4 [5] it was 0.6; on Cytochrome P450 2D6 [6], 0.8.
`CN(C)CCC(c1ccc(Br)cc1)c1ccccn1` (stereo not drawn) [BROMPHENIRAMINE]: the FC on Cytochrome P450 2C9 [1] stood at 1. In addition, the “fold change (FC)” value is on record as 2 at Cytochrome P450 3A4 [7] and 43 on Cytochrome P450 2D6 [8].
In the case of `CN(C)CCC(c1ccc(Cl)cc1)c1ccccn1` (stereo not drawn) [CHLORPHENIRAMINE], the FC at Cytochrome P450 2C9 [1] and at Cytochrome P450 3A4 [10] was 1 in each case. Moreover, on Cytochrome P450 2D6 [9], the “fold change (FC)” value turned out to be 33.6.
Consider `N[C@@H]1[C@H]2CN(c3nc4c(cc3F)c(=O)c(C(=O)O)cn4-c3ccc(F)cc3F)C[C@@H]12` [TROVAFLOXACIN], for which the “fold change (FC)” value on Cytochrome P450 2D6 [11] is on record as 1.1. The FC on Cytochrome P450 2C9 [1] and on Cytochrome P450 3A4 [10] was 1 throughout.
In the case of `O=C(COc1ccc(Cl)cc1)N1CCN(Cc2ccc3c(c2)OCO3)CC1` [FIPEXIDE], on Cytochrome P450 2C9 [1], the FC stood at 0.4. Further, the “fold change (FC)” value on Cytochrome P450 2D6 [12] came out at 0.8; at Cytochrome P450 3A4 [13] it was 0.6.

For the origin of these results see ChEMBL document CHEMBL4477225, “Development of a cell viability assay to assess drug metabolite structure-toxicity relationships” (Bioorg Med Chem Lett, 2016).
